According to ChEMBL document CHEMBL3769405, “Discovery of Potent and Selective Inhibitors of Phosphodiesterase 1 for the Treatment of Cognitive Impairment Associated with Neurodegenerative and Neuropsychiatric Diseases” (J Med Chem, 2016):
pKi: −log10 of the molar value.

Assays:
[1] = Inhibition of bovine brain PDE1 using fluorescent labeled cGMP as substrate after 15 mins by IMAP assay; set-up: species or system Bos taurus
[2] = Selectivity ratio of Ki for recombinant full lenght human PDE4A to bovine brain PDE1
[3] = Intrinsic clearance in human liver microsomes; type: ADME; settings: read-out: CLH
[4] = biological target: 3',5'-cyclic-AMP phosphodiesterase 4A (Homo sapiens, UniProt P27815); experiment: Inhibition of recombinant full lenght human PDE4A using fluorescent labeled cAMP as substrate after 15 mins by IMAP assay
Sequence of 3',5'-cyclic-AMP phosphodiesterase 4A (P27815 whole entry): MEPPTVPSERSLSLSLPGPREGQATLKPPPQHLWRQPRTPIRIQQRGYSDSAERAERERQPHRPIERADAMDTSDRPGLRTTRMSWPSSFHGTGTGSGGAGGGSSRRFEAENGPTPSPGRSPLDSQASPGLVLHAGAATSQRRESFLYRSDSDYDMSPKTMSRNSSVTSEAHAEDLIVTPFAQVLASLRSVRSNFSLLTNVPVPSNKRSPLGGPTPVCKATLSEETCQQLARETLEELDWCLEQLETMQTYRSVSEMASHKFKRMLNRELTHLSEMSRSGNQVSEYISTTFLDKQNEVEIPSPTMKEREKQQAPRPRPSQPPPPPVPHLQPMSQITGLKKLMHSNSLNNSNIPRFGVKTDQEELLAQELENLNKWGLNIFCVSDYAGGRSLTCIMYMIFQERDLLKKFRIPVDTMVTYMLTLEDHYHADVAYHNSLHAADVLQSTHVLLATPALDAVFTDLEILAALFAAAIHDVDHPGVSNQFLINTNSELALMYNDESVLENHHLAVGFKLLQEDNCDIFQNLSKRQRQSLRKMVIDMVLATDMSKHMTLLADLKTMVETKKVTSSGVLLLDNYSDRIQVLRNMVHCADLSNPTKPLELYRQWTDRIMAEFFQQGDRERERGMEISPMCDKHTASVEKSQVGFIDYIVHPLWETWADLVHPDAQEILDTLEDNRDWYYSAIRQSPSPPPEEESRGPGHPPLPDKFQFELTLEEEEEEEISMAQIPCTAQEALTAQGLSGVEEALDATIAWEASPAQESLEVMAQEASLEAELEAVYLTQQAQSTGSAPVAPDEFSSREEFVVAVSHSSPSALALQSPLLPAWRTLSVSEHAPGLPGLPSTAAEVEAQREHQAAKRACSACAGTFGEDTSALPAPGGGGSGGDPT

Row | pKi [1] | Ratio Ki [2] | CLint scaled [3] | pKi [4] | SMILES
1 | 7.36 | 841 | 64 mL/min/kg | 4.43 | CN1Cc2c(nn(Cc3ccc(C(F)(F)F)cc3)c2Nc2ccccc2)N2C1=N[C@@H]1CCC[C@@H]12
2 | 8.10 | 3750 | – | 4.52 | C[C@H]1CN=C2N(C)C(=O)c3c(nn(Cc4ccc(-c5ccccc5)cc4)c3Nc3ccccc3)N21
3 | 6.92 | 9.2 | – | 5.96 | CN1C(=O)c2c(nn(Cc3ccc(-c4cccc(F)n4)cc3)c2N(C)C)N2C1=N[C@@H]1CCC[C@@H]12
4 | 9.31 | 133 | – | 7.19 | CN1C(=O)c2c(nn(Cc3ccc(S(C)(=O)=O)cc3)c2Nc2ccccc2)N2C1=N[C@@H]1CCC[C@@H]12
5 | 8.28 | – | 72 mL/min/kg | 5.08 | CN1C(=O)c2c(nn(Cc3ccc(-c4ccccn4)cc3)c2Nc2ccccc2)N2C1=N[C@H]1CCC[C@H]12
6 | 7.55 | 154 | – | 5.37 | CNc1c2c(nn1Cc1ccc(-c3cccc(F)n3)cc1)N1C(=N[C@@H]3CCC[C@@H]31)N(C)C2=O
7 | 7.82 | 413 | – | 5.21 | CCCNc1c2c(nn1Cc1ccc(-c3cccc(F)n3)cc1)N1C(=N[C@@H]3CCC[C@@H]31)N(C)C2=O
8 | 10.14 | 2740 | 276 mL/min/kg | 6.70 | CN1C(=O)c2c(nn(Cc3ccc(-c4ncccc4F)cc3)c2Nc2ccccc2)N2C1=N[C@@H]1CCC[C@@H]12
9 | 7.62 | 229 | – | 5.26 | CN1C(=O)c2c(nn(Cc3ccc(-c4cccc(F)n4)cc3)c2NC2CCCC2)N2C1=N[C@@H]1CCC[C@@H]12
10 | 6.11 | 2.6 | – | 5.70 | CN1C(=O)c2c(Nc3ccccc3)nn(CC3CCCC3)c2N2C1=N[C@@H]1CCC[C@@H]12
11 | 8.31 | 816 | – | 5.40 | CN1C(=O)c2c(nn(Cc3ccc(-c4cccc(F)n4)cc3)c2NCc2ccccc2)N2C1=N[C@@H]1CCC[C@@H]12
12 | 6.54 | 2 | 22 mL/min/kg | 6.26 | O=C1NC2=N[C@@H]3CCC[C@@H]3N2c2nn(Cc3ccc(C(F)(F)F)cc3)c(Nc3ccccc3)c21
13 | 5.55 | 6.4 | 32 mL/min/kg | 4.74 | CN1C(=N)c2c(nn(Cc3ccc(C(F)(F)F)cc3)c2Nc2ccccc2)N2C1=N[C@@H]1CCC[C@@H]12
14 | 7.92 | 458 | – | 5.26 | CC(C)Nc1c2c(nn1Cc1ccc(-c3cccc(F)n3)cc1)N1C(=N[C@@H]3CCC[C@@H]31)N(C)C2=O
15 | 8.27 | – | 51 mL/min/kg | – | CN1C(=O)c2c(nn(Cc3ccc(-c4cccc(F)n4)cc3)c2Nc2ccccc2)N2C1=N[C@H]1CCC[C@H]12
16 | 8.55 | 571 | – | 5.80 | CN1C(=O)c2c(nn(Cc3ccc(-c4cccc(F)n4)cc3)c2NC2CCCCC2)N2C1=N[C@@H]1CCC[C@@H]12
17 | 9.39 | 1120 | – | 6.34 | CN1C(=O)c2c(nn(Cc3ccc(-c4ccc(F)cc4)cc3)c2Nc2ccccc2)N2C1=N[C@@H]1CCC[C@@H]12
18 | 8.24 | 414 | – | 5.62 | CN1C(=O)c2c(nn(Cc3ccc(-c4cccc(F)n4)cc3)c2N)N2C1=N[C@@H]1CCC[C@@H]12
19 | 7.51 | 12 | – | 6.43 | CN1C(=O)c2c(nn(Cc3ccc(-c4cccc(F)n4)cc3)c2Nc2ccncc2)N2C1=N[C@@H]1CCC[C@@H]12
20 | 6.60 | > 400 | – | < 4.00 | CN1C(=O)c2c(nn(Cc3ccc(-c4ccccc4)cc3)c2Nc2ccccc2)N2C[C@@H](COCc3ccccc3)N=C12

Row | pKi [1] | Ratio Ki [2] | CLint scaled [3] | pKi [4] | SMILES
21 | 8.13 | 851 | – | 5.20 | CC(C)CNc1c2c(nn1Cc1ccc(-c3cccc(F)n3)cc1)N1C(=N[C@@H]3CCC[C@@H]31)N(C)C2=O
22 | 8.32 | 2060 | – | 5.00 | CN1C(=O)c2c(nn(Cc3ccc(-c4ccccc4)cc3)c2Nc2ccccc2)N2CC(C)(C)CN=C12
23 | 8.89 | 2000 | – | 5.59 | CCCC(C)Nc1c2c(nn1Cc1ccc(-c3cccc(F)n3)cc1)N1C(=N[C@@H]3CCC[C@@H]31)N(C)C2=O (stereo not given in full)
24 | 9.82 | – | – | – | CN1C(=O)c2c(nn(Cc3ccc(-c4cccc(F)n4)cc3)c2Nc2ccccc2)N2C1=N[C@@H]1CCC[C@@H]12 [LENRISPODUN]
25 | 10.21 | 5320 | 218 mL/min/kg | 6.48 | CN1C(=O)c2c(nn(Cc3ccc(-c4cc(F)ccn4)cc3)c2Nc2ccccc2)N2C1=N[C@@H]1CCC[C@@H]12
26 | 8.57 | 1150 | – | 5.51 | CN1C(=O)c2c(nn(Cc3ccc(C4CCCN4C)cc3)c2Nc2ccccc2)N2C1=N[C@@H]1CCC[C@@H]12 (stereo not given in full)
27 | 10.13 | 6760 | 125 mL/min/kg | 6.30 | CN1C(=O)c2c(nn(Cc3ccc(-c4ccc(F)cn4)cc3)c2Nc2ccccc2)N2C1=N[C@@H]1CCC[C@@H]12
28 | 7.54 | 1520 | – | 4.36 | CN1C(=O)c2c(nn(Cc3ccc(-c4ccccc4)cc3)c2Nc2ccccc2)N2CCN=C12
29 | 7.51 | 24 | – | 6.13 | CN1C(=O)c2c(nn(Cc3ccc(-c4cccc(F)n4)cc3)c2N(C)c2ccccc2)N2C1=N[C@@H]1CCC[C@@H]12
30 | 7.19 | > 1500 | – | < 4.00 | CN1C(=O)c2c(nn(Cc3ccc(-c4ccccc4)cc3)c2Nc2ccccc2)N2CCCN=C12
31 | 8.64 | 652 | – | 5.82 | CC(C)[C@@H]1CN2C(=N1)N(C)C(=O)c1c2nn(Cc2ccc(-c3ccccc3)cc2)c1Nc1ccccc1
32 | 7.60 | 720 | 59 mL/min/kg | 4.74 | CN1Cc2c(nn(Cc3ccc(-c4ccccn4)cc3)c2Nc2ccccc2)N2C1=N[C@@H]1CCC[C@@H]12
33 | 8.80 | 750 | – | 5.92 | CN1C(=O)c2c(nn(Cc3ccc(C4CCCN4)cc3)c2Nc2ccccc2)N2C1=N[C@@H]1CCC[C@@H]12 (stereo not given in full)
34 | 6.41 | 33 | – | 4.89 | CN1C(=O)c2c(nn(Cc3ccc(-c4ccccc4)cc3)c2Nc2ccccc2)N2C[C@@H](Cc3ccccc3)N=C12
35 | 8.22 | 683 | – | 5.39 | CN1C(=O)c2c(nn(Cc3ccc(-c4ccccc4)cc3)c2Nc2ccccc2)N2C[C@@H](CO)N=C12
36 | 6.80 | 29 | – | 5.34 | CN1C(=O)c2c(nn(Cc3ccc(-c4cccc(F)n4)cc3)c2N2CCCC2)N2C1=N[C@@H]1CCC[C@@H]12
37 | 8.48 | 1030 | – | 5.47 | C[C@@H]1CN2C(=N1)N(C)C(=O)c1c2nn(Cc2ccc(-c3ccccc3)cc2)c1Nc1ccccc1
38 | 5.85 | 7 | – | – | CN1C(=O)c2c(Nc3ccccc3)n[nH]c2N2C1=N[C@@H]1CCC[C@@H]12
39 | 7.85 | 857 | – | 4.92 | CN1C(=O)c2c(nn(Cc3ccc(-c4ccccc4)cc3)c2Nc2ccccc2)N2CC(C3CCOC3)N=C12 (stereo not given)
